In patent publication US20060014740A1 (priority 2003, published 2006):
Read-outs that look alike come from different tables or passages of the source.

What was measured:
[1] = test system: human breast cancer cell line (MCF-7); assay: SRB cytotoxicity assay, MCF-7; format: cell-based; settings: Homo sapiens, MCF7, read-out: IC50 MCF-7
Method in brief: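 Cells plated at 1000–5000 per well by growth rate and exposed to compound (0 to 100 μM) for 96 h, three to five replicates. Cell number read by sulforhodamine B: TCA fixation, 0.4% SRB staining, absorbance at 540 nm.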

[2] = test system: CaOv-3 human ovarian cancer cell line; assay: SRB cytotoxicity assay, CaOv-3; format: cell-based; settings: Homo sapiens, Caov-3; Table 8
Method: (§1) For in vitro cytotoxicity screening, 1000 to 5000 cells were plated into each well of 96-well plates depending on growth rate, and exposed to different concentrations of a test compound for 96 h in three to five replicates. All the compounds were dissolved in dimethyl sulfoxide at 5 to 20 mM, and diluted to desired concentrations in complete culture medium. Cell numbers at the end of the drug treatment were measured by the SRB assay (Gududuru et al., “Synthesis and Biological Evaluation of Novel Cytotoxic Phospholipids for Prostate Cancer,” Bioorg. Med. Chem. Lett. 14:4919-4923 (2004); Rubinstein et at., “Comparison of in vitro Anticancer-Drug-Screening Data Generated with a Tetrazolium Assay Versus a Protein Assay Against a Diverse Panel of Human Tumor Cell Lines,” J. Naatl, Cancer Inst. 82:1113-1118 (1990), each of which is hereby incorporated by reference in its entirety). Briefly, the cells were fixed with 10% of trichloroacetic acid, stained with 0.4% SRB, and the absorbances at 540 nm was measured using a plate reader (DYNEX Technologies, Chantilly, Va.).
(§2) In vitro cytotoxicity assay was performed by the same sulforhodamine B (SRB) assay (described above). The compounds shown in Table 8 below where tested for activity against the breast cancer and ovarian cancer cell lines.

LNCaP cells [3] = assay: Apoptosis sandwich ELISA (DNA-histone complex), LNCaP; format: cell-based, human
Method: (§3) A sandwich ELISA (Roche, Mannheim, Germany) utilizing monoclonal antibodies specific for DNA and histones was used to quantify degree of apoptosis induced by the analogs after 72 h exposure. This assay measures DNA-histone complexes (mono- and oligonucleosomes) released into cytoplasm from the nucleus during apoptosis. RH7777 cells were employed because of nonspecific cytotoxicity of compound 4 in receptor-negative cells as well as receptor-positive prostate cancer cells.
(§4) From the LPL receptor mRNA expression studies (Table 2), it was evident that these cell lines serve as an excellent model system to explore the effects of LPL receptor. Given the structural similarity of SAPs to ceramide (and the known ability of ceramide to induce apoptosis), it was then determined whether the antiproliferative effects of thiazolidine analogs were mediated via apoptotla events. The ability of the analogs to induce apoptosis in LNCaP, PC-3, and RH7777 cells was examined using a quantitative sandwich ELISA that measures DNA-histone complex released during apoptosis. The enrichment factor calculated (as ratio of OD405 in treated and un-treated cells) provides a quantitative assessment of the degree of apoptosis induced. Initially, only two compounds (4 & 5) were used for this study. Apoptotic activity of analog (compound 4) was selective in prostate cancer cells despite nonselective cytotoxicity in RH7777 negative control cells (see Table 5 below). Analog compound 5 induced apoptosis in PC-3 and LNCaP cells, but to a lesser extent in PC-3 cells perhaps due to lower potency in this cell line.

PC-3 cells = assay: Apoptosis sandwich ELISA (DNA-histone complex), PC-3; format: cell-based, human
Method: as §3, §4

[4] = test system: SKOv-3 human ovarian cancer cell line; assay: SRB cytotoxicity assay, SKOv-3; format: cell-based; settings: Homo sapiens, SK-OV-3; Table 8
Method: as §1, §2

[5] = test system: LNCaP human prostate cancer cells; assay: SRB cytotoxicity assay, LNCaP; format: cell-based; settings: Homo sapiens, LNCaP; Example 10 table; 96 h; read-out: IC50 LNCaP
Method in brief: (§5)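 Antiproliferative effect was assessed by SRB assay after cells had been exposed for 96 h to a concentration series from 0 to 100 μM. Fixed, stained cells were quantified at 540 nm.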

[6] = test system: RH7777 rat hepatoma cells; assay: SRB cytotoxicity assay, RH7777 control cell line; format: cell-based; settings: for IC50: Rattus norvegicus, RH7777, Example 10 table, 0 to 100 μM for 96 h, read-out: IC50 RH7777
Method in brief: as §5

[7] = test system: OVCAR-3 human ovarian cancer cell line; assay: SRB cytotoxicity assay, OVCAR-3; format: cell-based; settings: Homo sapiens, OVCAR-3; Table 8
Method: as §1, §2

[8] = test system: PC-3 human prostate cancer cells; assay: SRB cytotoxicity assay, PC-3; format: cell-based; settings: Homo sapiens; Example 10 table; 96 h; read-out: IC50 PC-3
Method in brief: as §5

[9] = test system: PPC-1 human prostate cancer cells; assay: SRB cytotoxicity assay, PPC-1; format: cell-based; settings: Homo sapiens, PPC-1; Example 10 table; 96 h; read-out: IC50 PPC-1
Method in brief: as §5

LNCaP cells [10] = assay: DNA fragmentation by agarose gel electrophoresis; format: cell-based, human; settings: treated 24 to […], FIGS. 4A-B
Method: In FIG. 4B, the dose and exposure time are indicated for compound 5 as follows: lane 1, 100 bp DNA marker; lane 2, […] for 24 h; lane 3, 5 μM for 48 h; lane 4, 5 μM for 72 h; lane 5, 5 μM for 96 h; lane 6, 3 μM for 96 h; lane 7, 8 μM for 48 h; and lane 8, 8 μM for 72 h;

[11] = test system: TSU-Pr1 human prostate cancer cells; assay: SRB cytotoxicity assay, TSU-Pr1; format: cell-based; settings: Homo sapiens, TSU-Pr1; Example 10 table; 96 h; read-out: IC50 TSU-Pr1
Method in brief: as §5

[12] = test system: DU-145 human prostate cancer cells; assay: SRB cytotoxicity assay, DU-145; format: cell-based; settings: Homo sapiens, DU-145, read-out: IC50 DU-145; Example 10 table; 96 h
Method in brief: as §5

RH7777 cells = assay: Apoptosis sandwich ELISA (DNA-histone complex), RH7777; format: cell-based, rat
Method: as §3, §4

[13] = Table 8, breast cancer cell line

Compound | IC50 ([1]; Example 10 table, 96 h) [µM] | IC50 [1, 13] [µM] | IC50 [2] [µM] | Apoptosis enrichment factor (ratio of OD405 in treated and un-treated cells) (LNCaP cells [3]; 2 μM for 72 h) | Apoptosis enrichment factor (ratio of OD405 in treated and un-treated cells) (LNCaP cells [3]; 5 μM for 72 h) | Apoptosis enrichment factor (ratio of OD405 in treated and un-treated cells) (LNCaP cells [3]; 10 μM for 72 h) | Apoptosis enrichment factor (ratio of OD405 in treated and un-treated cells) (PC-3 cells; 2 μM for 72 h) | Apoptosis enrichment factor (ratio of OD405 in treated and un-treated cells) (PC-3 cells; 5 μM for 72 h) | Apoptosis enrichment factor (ratio of OD405 in treated and un-treated cells) (PC-3 cells; 10 μM for 72 h) | IC50 [4] [µM] | IC50 [5] [µM] | IC50 [6] [µM] | IC50 [7] [µM] | IC50 [8] [µM] | IC50 [9] [µM] | DNA fragmentation (apoptosis) (LNCaP cells [10]) | IC50 [11] [µM] | IC50 [12] [µM] | other results
CCCCCCCCCCCCCCNC(=O)[C@@H]1CSC(c2ccccc2)N1.Cl (mixture of isomers) [Compound 4-HCI, (2RS, 4R)-2-Phenylthiazolidine-4-carboxylic acid tetradecylamide Hydrochloride] | 4.2 | 2.4 | 13.9 | 14.1 | 75.4 | 80.7 | 1.8 | 18.7 | 54.0 | 2.1 | 1.4 | 3.4 | 1.6 | 3 | 1.3 | induce cell apoptosis | 2 | 2.4 | Fold less selective against RH7777 cell line than compound 5 [6]: 8 fold; Apoptosis enrichment factor (ratio of OD405 in treated and un-treated cells) (RH7777 cells; 2 μM for 72 h): 2.6; Apoptosis enrichment factor (ratio of OD405 in treated and un-treated cells) (RH7777 cells; 5 μM for 72 h): 3.2; Apoptosis enrichment factor (ratio of OD405 in treated and un-treated cells) (RH7777 cells; 10 μM for 72 h): 2.5
CCCCCCCCCCCCCCCCCCNC(=O)[C@@H]1CSC(c2ccccc2)N1.Cl (mixture of isomers) [Compound 5-HCI, (2RS, 4R)-2-Phenylthiazolidine-4-carboxylic acid octadecylamide Hydrochloride] | 4.2 | 4.2 | 2.5 | 4.5 | 45.2 | 37.1 | 1.4 | 2.3 | 3.4 | 8.5 | 2.1 | 25.6 | 4.5 | 7.8 | 2 | induce cell apoptosis | 5 | 5.4 | Apoptosis enrichment factor (ratio of OD405 in treated and un-treated cells) (LNCaP cells [3]; 20 μM for 72 h): 26.1; Apoptosis enrichment factor (ratio of OD405 in treated and un-treated cells) (PC-3 cells; 20 μM for 72 h): 12.7
